Laboratory results published in patent US7169568B2, “Method for screening molecules that exert a neurotrophic effect through activation of neurotrophin receptors” (New York University, priority 2000, dated 2007).

Assays:
[1] = system: hippocampal neurons; assay: Cell death assay (LDH release), hippocampal neurons after B27 withdrawal; type: cell-based, rat
Description: . In FIG. 6A, NGF-differentiated PC12 cells were prepared and then NGF and serum were withdrawn for 48 hours as described in the Materials and Methods section of Example 1. Upon NGF withdrawal, various concentrations of CGS 21680 (CGS) were added to the media. CON =No Addition. […] In FIG. 6B, hippocampal neurons were prepared and B27 was withdrawn for 48 hrs as described in the Materials and Methods section of Example 1. Upon B27 withdrawal, various concentrations of CGS 21680 (CGS) were added to the media. […] All LDH levels were quantitated and % cell death calculated as described in the Materials and Methods section of Example 1. All bars depict mean+SEM from three independent experiments.
Hippocampal Cell Cultures. Dissociated primary cultures of hippocampal neurons from embryonic day 17 (E17) rats were prepared from timed-pregnant Sprague-Dawley rats as described previously (Aibel et al, 1998). Fetuses were removed under sterile conditions and kept in PBS on ice for microscopic dissection of the hippocampus. The meninges were removed and the tissue was placed in Neurobasal media (Gibco BRL). The tissue was briefly minced with fine forceps and then triturated with a fire polished pasteur pipet. Cells were counted and then plated on culture wells coated with 0.01 mg/ml poly-D-lysine overnight. Hippocampal cells were maintained in Neurobasal media, containing B27 supplement and L-glutamine (0.5 mM). Experiments were conducted 7–10 days after plating.
Hippocampal neurons were maintained in Neurobasal media containing B27 supplement and 0.5 mM L-glutamine for 10 days. B27 was then removed, and adenosine agonists or BDNF (100 ng/ml) was added to the media. MK-801 (1 μM) was added to all conditions, to decrease the contribution of NMDA-mediated cell death. After 48 hrs, cell death was assessed by measurement of LDH released into media.

[2] = system: MAP kinase; assay: MAP kinase activation in PC12 cells (anti-phospho MAP kinase immunoblot); type: cell-based; conditions: PC12 cells, adenosine 10 μM, within 10 minutes
Description: PC12 cells (615) were treated with adenosine (10 μM) for various times in the presence or absence of […] (100 nM) or LY294002 (10 μM). The cells were subsequently harvested in lysis buffer; lysates and immunoprecipitated samples were subsequently immunoblotted with anti-phospho MAP kinase, anti-phospho Akt, and anti-phosphotyrosine. Reprobing with anti-MAP kinase and anti-pan-Trk antibodies was carried out to ensure equal protein loading. Immunoprotection and Immunoblotting. PC12 cells or PC12-615 cells (Hempstead et al, 1992), were maintained in Dulbecco's Modified Eagle's Medium (DMEM) containing 10% fetal bovine serum (FBS) supplemented with 100 units/ml penicillin, 100 μg/ml streptomycin, and 2 mM glutamine plus 200 μg/ml G418. Cells were placed in low serum medium (1% FBS, 0.5% horse serum) overnight prior to experiments. Cell lysates from PC12, 615 cells, or hippocampal cells were incubated in lysis buffer (1% NP40) for 4 hours to overnight at 4° C. with anti-pan-Trk polyclonal antibody, followed by incubation with protein A-Sepharose beads. Equivalent amounts of protein were analyzed for each condition. […] The immunoreactive protein bands were detected by ECL reagents based upon enhanced chemiluminescence procedure (Amersham Pharmacia).

## CCNC(=O)[C@H]1O[C@@H](n2cnc3c(N)nc(NCCc4ccc(CCC(=O)O)cc4)nc32)[C@H](O)[C@@H]1O [CGS 21680, 2-[(4-(2-carboxyethyl)phenylethyl)]aminoadenosine-5′-N-ethylcarboxamide]
[1]; 48 hrs after B27 withdrawal, absence of BDNF, LDH release
  Cells rescued: greater than 60%
[1]; various concentrations upon B27 withdrawal
  Dose dependence of survival action: dose-dependent

## Nc1ncnc2c1ncn2[C@@H]1O[C@H](CO)[C@@H](O)[C@H]1O [adenosine]
[2]
  Phosphorylated MAP kinase: marked increased in phosphorylated MAP kinase
